Data on three molecules can be found in ChEMBL document CHEMBL1201862, “PubChem BioAssay data set” (2004).

What all share (format): functional
The target in assay [1] is T1, DNA dC->dU-editing enzyme APOBEC-3G (Homo sapiens, UniProt Q9HC16). Briefly: SAR analysis of small molecule inhibitors of APOBEC3G DNA Deaminase via a fluorescence-based single-stranded DNA deaminase assay - Set 2. The settings on record: read-out: IC50_Mean.
For assay [2], the target named is T2, DNA dC->dU-editing enzyme APOBEC-3A (Homo sapiens, UniProt P31941). Briefly: APOBEC3A DNA deaminase inhibitors, dose response, biochemical (AID 504722).
For assay [3], the target named is T3, Rac GTPase-activating protein 1 (Homo sapiens, UniProt Q9H0H5).
T3 sequence (Q9H0H5 whole entry): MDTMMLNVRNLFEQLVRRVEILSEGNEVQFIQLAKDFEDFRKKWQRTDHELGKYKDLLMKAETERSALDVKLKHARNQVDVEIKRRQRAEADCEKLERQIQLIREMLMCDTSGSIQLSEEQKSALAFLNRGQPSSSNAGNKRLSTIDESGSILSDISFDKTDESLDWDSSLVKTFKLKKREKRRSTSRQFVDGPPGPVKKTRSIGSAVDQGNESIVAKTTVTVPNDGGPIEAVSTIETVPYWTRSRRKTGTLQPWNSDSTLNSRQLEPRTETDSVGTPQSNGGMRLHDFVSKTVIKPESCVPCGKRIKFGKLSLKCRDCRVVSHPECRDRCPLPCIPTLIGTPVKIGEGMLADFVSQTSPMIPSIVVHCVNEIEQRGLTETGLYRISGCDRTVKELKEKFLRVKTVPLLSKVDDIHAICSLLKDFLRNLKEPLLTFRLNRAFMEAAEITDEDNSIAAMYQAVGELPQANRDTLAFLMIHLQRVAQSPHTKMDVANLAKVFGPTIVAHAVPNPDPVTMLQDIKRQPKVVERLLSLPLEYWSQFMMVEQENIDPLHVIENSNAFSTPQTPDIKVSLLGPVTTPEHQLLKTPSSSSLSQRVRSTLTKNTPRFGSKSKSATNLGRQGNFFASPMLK
In words: MgcRacGAP GTPase-activating activity inhibitors, confirmation, biochemical, ADP Hunter fluorescence, primary and confirmatory (AID 624330).

Assay [4] addresses T1, DNA dC->dU-editing enzyme APOBEC-3G. In words: Dose Response confirmation of small molecule APOBEC3G DNA Deaminase Inhibitors via a fluorescence-based single-stranded DNA deaminase assay. [Related pubchem assays (depositor defined):AID493012, AID493028].
The target of assay [5] is T2, DNA dC->dU-editing enzyme APOBEC-3A. In words: SAR analysis of small molecule inhibitors of APOBEC3A DNA Deaminase via a fluorescence-based single-stranded DNA deaminase assay - Set 2. To be noted: read-out: IC50_Mean.
Assay [6] addresses Melanin-concentrating hormone receptor 1 (Homo sapiens, UniProt Q99705). In words: Late-stage fluorescence-based counterscreen for antagonists of the G-protein coupled receptor 7 (GPR7): cell-based dose response assay to identify antagonists of the melanin-concentrating hormone receptor 1 (MCHR1) Set 5. For orientation: A counterscreen serves to expose hits that act by an unwanted route or on another target.

The target in assay [7] is Neuropeptides B/W receptor type 1 (Homo sapiens, UniProt P48145). In words: GPR7 antagonist potency, late-stage follow-up, cell-based, fluorescence, dose response, set 5 (AID 588566).
For assay [8], the target named is Dual specificity mitogen-activated protein kinase kinase 1 (Homo sapiens, UniProt Q02750). Briefly: Navigating the Kinome. Panel member name: MAP2K1.
Assay [9] addresses Tyrosine-protein kinase JAK2 (Homo sapiens, UniProt O60674).
Assay [10] concerns the target Cyclin-dependent kinase 8 (Homo sapiens, UniProt P49336). Briefly: Navigating the Kinome. Panel member name: CDK8.
Assay [11] concerns the target Serine/threonine-protein kinase PAK 4 (Homo sapiens, UniProt O96013).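 Also: value obtained within a kinome profiling panel in which PAK4 was one of the panel members.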
Assay [12] addresses Dual specificity mitogen-activated protein kinase kinase 2 (Homo sapiens, UniProt P36507). Briefly: Navigating the Kinome. Panel member name: MAP2K2.
Assay [13] concerns the target Mitogen-activated protein kinase 14 (Homo sapiens, UniProt Q16539).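 Also: part of a kinome-wide panel, MAPK14 entry.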
Assay [14] has as its target Mitogen-activated protein kinase kinase kinase kinase 5 (Homo sapiens, UniProt Q9Y4K4).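 Also: measured as one member of a kinome-spanning kinase panel.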
In assay [15] the target is Platelet-derived growth factor receptor alpha (Homo sapiens, UniProt P16234). Briefly: Navigating the Kinome. Panel member name: PDGFRA.
Assay [16] has as its target Cyclin-dependent kinase 19 (Homo sapiens, UniProt Q9BWU1). Briefly: Navigating the Kinome. Panel member name: CDC2L6.
Assay [17] deals with MAP/microtubule affinity-regulating kinase 3 (Homo sapiens, UniProt P27448).
Assay [18] has as its target Cyclin-dependent kinase 9 (Homo sapiens, UniProt P50750).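 Also: value from the CDK9 entry of a kinome-spanning kinase panel.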
Assay [19] has as its target ALK tyrosine kinase receptor (Homo sapiens, UniProt Q9UM73).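 Also: ALK tested as one member of a kinase panel screen.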
For assay [20], the target named is Serine/threonine-protein kinase TBK1 (Homo sapiens, UniProt Q9UHD2). In words: Navigating the Kinome. Panel member name: TBK1.
Assay [21] addresses G protein-coupled receptor kinase 5 (Homo sapiens, UniProt P34947). In words: Navigating the Kinome. Panel member name: GPRK5.
For assay [22], the target named is Mitogen-activated protein kinase 8 (Homo sapiens, UniProt P45983).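 Also: value comes from one member of a kinome-wide kinase profiling panel.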
The target in assay [23] is Tyrosine-protein kinase JAK3 (Homo sapiens, UniProt P52333).
For assay [24], the target named is Dual specificity protein kinase CLK2 (Homo sapiens, UniProt P49760).
Assay [25] addresses Mitogen-activated protein kinase 9 (Homo sapiens, UniProt P45984).
The target in assay [26] is Dual specificity protein kinase CLK4 (Homo sapiens, UniProt Q9HAZ1).
The target of assay [27] is Tyrosine-protein kinase receptor TYRO3 (Homo sapiens, UniProt Q06418).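 Also: TYRO3 value obtained as one member of a kinome-wide profiling panel.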
In assay [28] the target is Serine/threonine-protein kinase pim-1 (Homo sapiens, UniProt P11309).
For assay [29], the target named is Mitogen-activated protein kinase kinase kinase kinase 4 (Homo sapiens, UniProt O95819).
Assay [30] addresses Vascular endothelial growth factor receptor 2 (Homo sapiens, UniProt P35968).
Assay [31] deals with Leukocyte tyrosine kinase receptor (Homo sapiens, UniProt P29376). In words: Navigating the Kinome. Panel member name: LTK.
Assay [32] concerns the target Macrophage colony-stimulating factor 1 receptor (Homo sapiens, UniProt P07333).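 Also: value comes from the Navigating the Kinome screening panel, CSF1R member.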
Assay [33] has as its target Tyrosine-protein kinase Fyn (Homo sapiens, UniProt P06241).
Assay [34] addresses Tyrosine-protein kinase Lck (Homo sapiens, UniProt P06239).
The target in assay [35] is Proto-oncogene tyrosine-protein kinase receptor Ret (Homo sapiens, UniProt P07949).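 Also: measured within a kinome-wide profiling panel, RET as the panel member.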
For assay [36], the target named is Dual specificity tyrosine-phosphorylation-regulated kinase 1A (Homo sapiens, UniProt Q13627).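 Also: measured against DYRK1A as one member of a broad kinome profiling panel.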
The target in the next assay is Aurora kinase A (Homo sapiens, UniProt O14965).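 Also: value from the Navigating the Kinome kinase panel profiling, panel entry STK6.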
The target of assay [37] is Ribosomal protein S6 kinase alpha-3 (Homo sapiens, UniProt P51812).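 Also: measured within a kinome-wide profiling panel.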
For assay [38], the target named is Casein kinase I isoform alpha (Homo sapiens, UniProt P48729).
Assay [39] has as its target Leucine-rich repeat serine/threonine-protein kinase 2 (Homo sapiens, UniProt Q5S007).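 Also: value from a broad kinome-wide panel profiling study in which LRRK2 was one of the kinases tested.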
For assay [40], the target named is 5'-AMP-activated protein kinase catalytic subunit alpha-1 (Homo sapiens, UniProt Q13131).
In assay [41] the target is Fibroblast growth factor receptor 1 (Homo sapiens, UniProt P11362).
The target of assay [42] is Glycogen synthase kinase-3 beta (Homo sapiens, UniProt P49841).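 Also: value comes from a broad kinome profiling panel, with GSK3B as the panel member.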
The target of assay [43] is Calcium/calmodulin-dependent protein kinase type II subunit alpha (Homo sapiens, UniProt Q9UQM7). Briefly: Navigating the Kinome. Panel member name: CAMK2A.
Assay [44] deals with Receptor-type tyrosine-protein kinase FLT3 (Homo sapiens, UniProt P36888).
Assay [45] deals with cAMP-dependent protein kinase catalytic subunit PRKX (Homo sapiens, UniProt P51817).
In assay [46] the target is Vascular endothelial growth factor receptor 1 (Homo sapiens, UniProt P17948).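 Also: measured within a kinome-wide profiling panel, FLT1 as the panel member.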
In assay [47] the target is Tyrosine-protein kinase ABL1 (Homo sapiens, UniProt P00519).
In assay [48] the target is Insulin-like growth factor 1 receptor (Homo sapiens, UniProt P08069). In words: Navigating the Kinome. Panel member name: IGF1R.
For assay [49], the target named is Macrophage-stimulating protein receptor (Homo sapiens, UniProt Q04912). In words: Navigating the Kinome. Panel member name: MST1R.
The target of assay [50] is Serine/threonine-protein kinase TAO1 (Homo sapiens, UniProt Q7L7X3).
Assay [51] deals with Death-associated protein kinase 3 (Homo sapiens, UniProt O43293).
The target in assay [52] is cAMP-dependent protein kinase catalytic subunit alpha (Homo sapiens, UniProt P17612).
Assay [53] addresses Inhibitor of nuclear factor kappa-B kinase subunit epsilon (Homo sapiens, UniProt Q14164). In words: Navigating the Kinome. Panel member name: IKBKE.
Assay [54] addresses Mitogen-activated protein kinase kinase kinase kinase 2 (Homo sapiens, UniProt Q12851).
The target of assay [55] is Glycogen synthase kinase-3 alpha (Homo sapiens, UniProt P49840).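 Also: GSK3A result taken from a broad kinome-wide kinase panel.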

In general, Ki refers to the equilibrium dissociation constant of an inhibitor or competing ligand from its target.

Calls of active or inactive are those of the source.

T2 sequence (P31941 whole entry): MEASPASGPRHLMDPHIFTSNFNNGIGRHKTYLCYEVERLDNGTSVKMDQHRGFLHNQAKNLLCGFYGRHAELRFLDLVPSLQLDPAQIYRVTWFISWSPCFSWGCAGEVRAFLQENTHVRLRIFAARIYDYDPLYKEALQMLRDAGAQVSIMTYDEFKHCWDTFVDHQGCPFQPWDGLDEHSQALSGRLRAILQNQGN
T1 sequence (Q9HC16 whole entry): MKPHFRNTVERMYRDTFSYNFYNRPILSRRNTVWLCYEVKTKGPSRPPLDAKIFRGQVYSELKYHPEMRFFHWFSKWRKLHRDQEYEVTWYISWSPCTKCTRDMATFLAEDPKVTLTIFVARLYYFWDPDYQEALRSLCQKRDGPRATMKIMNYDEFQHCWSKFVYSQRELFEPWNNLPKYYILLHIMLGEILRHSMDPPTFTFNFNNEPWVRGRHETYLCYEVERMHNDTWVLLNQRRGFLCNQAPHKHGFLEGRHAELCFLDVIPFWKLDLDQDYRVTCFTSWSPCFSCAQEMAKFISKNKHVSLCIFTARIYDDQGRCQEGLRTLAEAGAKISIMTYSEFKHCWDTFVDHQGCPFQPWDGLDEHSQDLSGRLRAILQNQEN
Dual specificity protein kinase CLK2, sequence (P49760 whole entry): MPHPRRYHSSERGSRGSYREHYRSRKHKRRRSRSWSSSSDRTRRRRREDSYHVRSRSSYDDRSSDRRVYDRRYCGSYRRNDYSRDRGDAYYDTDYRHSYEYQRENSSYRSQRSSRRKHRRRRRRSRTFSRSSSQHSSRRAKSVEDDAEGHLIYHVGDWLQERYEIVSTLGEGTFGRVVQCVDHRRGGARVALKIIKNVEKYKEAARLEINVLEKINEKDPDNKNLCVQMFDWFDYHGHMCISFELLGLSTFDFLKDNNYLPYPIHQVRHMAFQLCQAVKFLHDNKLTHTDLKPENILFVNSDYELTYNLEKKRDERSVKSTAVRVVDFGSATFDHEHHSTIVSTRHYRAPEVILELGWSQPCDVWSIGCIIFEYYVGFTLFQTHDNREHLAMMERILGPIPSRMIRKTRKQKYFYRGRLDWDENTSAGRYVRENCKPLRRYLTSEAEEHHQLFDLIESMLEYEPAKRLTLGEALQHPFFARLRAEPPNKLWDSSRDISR
cAMP-dependent protein kinase catalytic subunit PRKX, sequence (P51817 whole entry): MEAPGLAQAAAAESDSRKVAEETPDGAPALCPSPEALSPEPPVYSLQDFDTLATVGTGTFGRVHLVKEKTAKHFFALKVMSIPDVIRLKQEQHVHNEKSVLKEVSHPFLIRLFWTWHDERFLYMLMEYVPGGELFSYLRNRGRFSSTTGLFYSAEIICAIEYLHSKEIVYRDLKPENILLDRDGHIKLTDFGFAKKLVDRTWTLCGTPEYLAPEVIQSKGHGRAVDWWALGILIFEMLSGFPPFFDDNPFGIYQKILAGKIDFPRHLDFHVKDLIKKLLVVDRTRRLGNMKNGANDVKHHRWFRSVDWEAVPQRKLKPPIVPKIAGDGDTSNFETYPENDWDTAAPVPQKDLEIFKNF
5'-AMP-activated protein kinase catalytic subunit alpha-1, sequence (Q13131 whole entry): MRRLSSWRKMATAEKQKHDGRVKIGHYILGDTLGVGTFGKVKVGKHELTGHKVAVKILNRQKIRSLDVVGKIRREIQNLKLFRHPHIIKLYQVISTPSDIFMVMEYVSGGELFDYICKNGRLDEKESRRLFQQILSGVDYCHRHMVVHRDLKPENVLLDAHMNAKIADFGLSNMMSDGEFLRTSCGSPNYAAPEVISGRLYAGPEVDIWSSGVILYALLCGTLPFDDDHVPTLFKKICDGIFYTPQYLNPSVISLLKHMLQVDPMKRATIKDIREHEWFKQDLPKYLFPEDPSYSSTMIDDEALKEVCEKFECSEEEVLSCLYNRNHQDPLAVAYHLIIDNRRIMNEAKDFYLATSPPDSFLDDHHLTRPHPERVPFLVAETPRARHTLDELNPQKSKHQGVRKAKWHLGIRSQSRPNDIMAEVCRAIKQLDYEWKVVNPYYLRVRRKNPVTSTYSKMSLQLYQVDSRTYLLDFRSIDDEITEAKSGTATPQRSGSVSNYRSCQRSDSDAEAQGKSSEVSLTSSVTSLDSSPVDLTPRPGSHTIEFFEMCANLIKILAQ
Proto-oncogene tyrosine-protein kinase receptor Ret, sequence (P07949 whole entry): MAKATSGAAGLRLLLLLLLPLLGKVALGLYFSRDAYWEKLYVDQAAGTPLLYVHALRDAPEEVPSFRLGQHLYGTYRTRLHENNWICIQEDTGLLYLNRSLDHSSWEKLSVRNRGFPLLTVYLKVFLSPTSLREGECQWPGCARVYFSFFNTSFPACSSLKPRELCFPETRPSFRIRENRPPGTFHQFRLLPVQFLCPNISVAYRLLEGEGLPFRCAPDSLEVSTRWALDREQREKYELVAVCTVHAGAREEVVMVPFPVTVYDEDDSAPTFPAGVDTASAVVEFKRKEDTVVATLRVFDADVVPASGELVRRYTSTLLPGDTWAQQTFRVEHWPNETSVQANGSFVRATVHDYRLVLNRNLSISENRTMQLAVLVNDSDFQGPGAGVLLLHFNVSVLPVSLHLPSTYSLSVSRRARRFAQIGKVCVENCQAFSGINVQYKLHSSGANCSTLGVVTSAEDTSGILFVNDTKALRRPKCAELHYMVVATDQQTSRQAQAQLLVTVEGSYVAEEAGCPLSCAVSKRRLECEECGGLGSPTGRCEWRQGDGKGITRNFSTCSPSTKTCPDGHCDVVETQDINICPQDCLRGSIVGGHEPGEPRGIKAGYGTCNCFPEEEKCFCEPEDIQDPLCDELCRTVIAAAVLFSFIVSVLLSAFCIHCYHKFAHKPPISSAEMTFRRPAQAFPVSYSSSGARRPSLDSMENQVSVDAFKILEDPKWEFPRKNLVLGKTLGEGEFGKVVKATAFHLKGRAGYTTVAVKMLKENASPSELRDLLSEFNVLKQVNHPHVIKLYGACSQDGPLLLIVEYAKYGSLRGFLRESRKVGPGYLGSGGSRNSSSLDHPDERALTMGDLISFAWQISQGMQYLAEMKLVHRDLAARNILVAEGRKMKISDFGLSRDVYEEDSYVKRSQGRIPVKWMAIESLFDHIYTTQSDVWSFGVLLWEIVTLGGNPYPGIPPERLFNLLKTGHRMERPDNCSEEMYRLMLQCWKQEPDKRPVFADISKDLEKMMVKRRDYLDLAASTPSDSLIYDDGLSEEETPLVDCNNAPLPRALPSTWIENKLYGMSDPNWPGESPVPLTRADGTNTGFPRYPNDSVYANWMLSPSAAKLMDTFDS
Platelet-derived growth factor receptor alpha, sequence (P16234 whole entry): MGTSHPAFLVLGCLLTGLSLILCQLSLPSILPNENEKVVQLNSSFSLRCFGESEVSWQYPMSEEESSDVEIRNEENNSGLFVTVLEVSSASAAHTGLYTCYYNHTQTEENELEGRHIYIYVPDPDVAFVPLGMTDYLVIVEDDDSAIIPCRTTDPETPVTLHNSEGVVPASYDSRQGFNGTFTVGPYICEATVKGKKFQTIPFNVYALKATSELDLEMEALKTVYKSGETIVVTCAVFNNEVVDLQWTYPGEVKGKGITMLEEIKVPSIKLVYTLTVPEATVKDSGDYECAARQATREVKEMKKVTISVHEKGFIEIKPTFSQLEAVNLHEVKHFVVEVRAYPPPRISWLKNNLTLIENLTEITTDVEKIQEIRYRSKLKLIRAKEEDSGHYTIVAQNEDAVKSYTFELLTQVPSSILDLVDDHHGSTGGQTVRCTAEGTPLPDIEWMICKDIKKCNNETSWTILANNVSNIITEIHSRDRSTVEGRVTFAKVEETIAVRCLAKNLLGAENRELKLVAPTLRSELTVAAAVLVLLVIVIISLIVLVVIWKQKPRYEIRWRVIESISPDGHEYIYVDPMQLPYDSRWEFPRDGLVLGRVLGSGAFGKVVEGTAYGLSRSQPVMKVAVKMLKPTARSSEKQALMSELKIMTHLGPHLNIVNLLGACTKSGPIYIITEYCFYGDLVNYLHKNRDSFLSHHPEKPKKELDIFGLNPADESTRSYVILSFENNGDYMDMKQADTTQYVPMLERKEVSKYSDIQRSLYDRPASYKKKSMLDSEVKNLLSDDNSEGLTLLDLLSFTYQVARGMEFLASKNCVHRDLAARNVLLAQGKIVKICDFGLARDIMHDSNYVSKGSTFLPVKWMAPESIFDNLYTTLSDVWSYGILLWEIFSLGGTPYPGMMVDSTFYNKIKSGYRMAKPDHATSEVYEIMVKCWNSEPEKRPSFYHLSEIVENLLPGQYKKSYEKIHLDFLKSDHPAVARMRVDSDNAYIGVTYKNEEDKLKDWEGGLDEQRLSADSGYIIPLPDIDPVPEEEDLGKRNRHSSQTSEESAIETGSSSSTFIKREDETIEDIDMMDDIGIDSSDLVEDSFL
Dual specificity mitogen-activated protein kinase kinase 1, sequence (Q02750 whole entry): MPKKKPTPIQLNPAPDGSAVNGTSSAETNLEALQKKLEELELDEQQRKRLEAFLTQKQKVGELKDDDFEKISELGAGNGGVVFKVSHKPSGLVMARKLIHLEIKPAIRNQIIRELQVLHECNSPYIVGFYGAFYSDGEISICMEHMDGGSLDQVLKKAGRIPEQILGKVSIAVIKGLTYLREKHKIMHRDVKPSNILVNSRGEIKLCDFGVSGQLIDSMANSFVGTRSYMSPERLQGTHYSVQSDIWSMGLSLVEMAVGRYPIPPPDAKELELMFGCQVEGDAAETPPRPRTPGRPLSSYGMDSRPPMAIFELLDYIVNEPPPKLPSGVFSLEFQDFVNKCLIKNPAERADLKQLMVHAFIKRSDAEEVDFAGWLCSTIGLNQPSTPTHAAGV
Casein kinase I isoform alpha, sequence (P48729 whole entry, canonical isoform): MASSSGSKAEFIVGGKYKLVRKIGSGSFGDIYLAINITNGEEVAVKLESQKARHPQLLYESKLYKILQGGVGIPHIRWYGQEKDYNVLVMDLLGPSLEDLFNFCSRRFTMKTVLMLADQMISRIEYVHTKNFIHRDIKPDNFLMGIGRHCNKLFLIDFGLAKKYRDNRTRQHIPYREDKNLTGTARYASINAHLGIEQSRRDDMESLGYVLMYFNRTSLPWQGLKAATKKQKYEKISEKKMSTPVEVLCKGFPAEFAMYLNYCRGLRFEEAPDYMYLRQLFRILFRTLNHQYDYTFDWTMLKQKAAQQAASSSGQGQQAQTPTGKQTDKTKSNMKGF

With `O=c1c2ccccc2n2c(=S)[nH]nc2n1-c1ccccc1`, the IC50 in assay [1] was 376 nM (active); in assay [2], > 100 µM (inactive); in assay [3], 25.8 µM (active); in assay [4], 4.67 µM (active); in assay [5] it was > 99 µM (inactive).

Turning to `CN(C)C(=O)c1ccc(Oc2c(Cl)cnn(Cc3cccc4ccccc34)c2=O)cc1`, the IC50 in assay [6] was 7.88 µM (active); in assay [7], 9.29 µM (active).

Turning to `Cc1cc(O)nc2[nH]nc(-c3cccc(-c4ccc(Cl)cc4)c3)c12`, the Ki was > 3.16 µM (inactive) in assay [8]; > 2.51 µM (inactive) in assay [9]; > 3.98 µM (inactive) in assay [10]; 1.58 µM (active) in assay [11]; > 3.98 µM (inactive) in [12]; > 3.98 µM (inactive) in assay [13]. Further, the Ki in assay [14] was > 3.98 µM (inactive); in [15], > 2.51 µM (inactive); in [16] it was > 100 µM (inactive); in [17], > 5.01 µM (inactive); in assay [18] it was > 1.58 µM (inactive); in assay [19] it was > 6.31 µM (inactive). Moreover, the Ki is > 3.16 µM (inactive) in assay [20]; > 3.98 µM (inactive) in assay [21]; > 5.01 µM (inactive) in [22]; > 5.01 µM (inactive) in [23]; > 3.98 µM (inactive) in [24]; > 3.98 µM (inactive) in assay [25]. The Ki in assay [26] is > 2.51 µM (inactive); in [27], > 3.16 µM (inactive); in assay [28] it was > 6.31 µM (inactive); in assay [29], > 5.01 µM (inactive); in assay [30], > 2.51 µM (inactive); in [31], > 2.51 µM (inactive). Moreover, the Ki was > 2.51 µM (inactive) in assay [32]; > 6.31 µM (inactive) in assay [33]; > 6.31 µM (inactive) in assay [34]; > 3.16 µM (inactive) in assay [35]; > 2 µM (inactive) in assay [36]; > 1.58 µM (inactive) on Aurora kinase A. Besides, the Ki in assay [37] was > 3.98 µM (inactive); in assay [38], > 3.98 µM (inactive); in [39], > 2.51 µM (inactive); in assay [40] it was > 3.16 µM (inactive); in [41], > 3.98 µM (inactive); in assay [42], > 3.98 µM (inactive). Besides, the Ki in [43] is > 7.94 µM (inactive); in assay [44], > 3.16 µM (inactive); in assay [45], 6.31 nM (active); in assay [46] it was > 3.98 µM (inactive); in assay [47], > 3.98 µM (inactive); in [48], > 2.51 µM (inactive). Also, the Ki in [49] is > 3.98 µM (inactive); in assay [50] it was > 6.31 µM (inactive); in assay [51], > 5.01 µM (inactive); in assay [52] it was > 1.26 µM (inactive); in assay [53] it was > 3.16 µM (inactive); in [54], > 2.51 µM (inactive). Further, in assay [55], the Ki was > 3.98 µM (inactive).
